# Test results as given in US12172995B2, “Substituted indole and indazole compounds” (BRISTOL-MYERS SQUIBB COMPANY, priority 2018, dated 2024).
# Key:
# Type in all cases: cell-based
# [1] = target: T1, human TLR8 (Homo sapiens, UniProt Q9NR97); assay: TLR8 inhibition reporter assay (HEK-Blue SEAP); conditions: HEK-Blue cells overexpressing human TLR8, stimulated with R848 15.9 μM, 22 hour incubation
# T1 construct: host or cells: HEK-Blue cells
# T1 sequence (Q9NR97 27-1041): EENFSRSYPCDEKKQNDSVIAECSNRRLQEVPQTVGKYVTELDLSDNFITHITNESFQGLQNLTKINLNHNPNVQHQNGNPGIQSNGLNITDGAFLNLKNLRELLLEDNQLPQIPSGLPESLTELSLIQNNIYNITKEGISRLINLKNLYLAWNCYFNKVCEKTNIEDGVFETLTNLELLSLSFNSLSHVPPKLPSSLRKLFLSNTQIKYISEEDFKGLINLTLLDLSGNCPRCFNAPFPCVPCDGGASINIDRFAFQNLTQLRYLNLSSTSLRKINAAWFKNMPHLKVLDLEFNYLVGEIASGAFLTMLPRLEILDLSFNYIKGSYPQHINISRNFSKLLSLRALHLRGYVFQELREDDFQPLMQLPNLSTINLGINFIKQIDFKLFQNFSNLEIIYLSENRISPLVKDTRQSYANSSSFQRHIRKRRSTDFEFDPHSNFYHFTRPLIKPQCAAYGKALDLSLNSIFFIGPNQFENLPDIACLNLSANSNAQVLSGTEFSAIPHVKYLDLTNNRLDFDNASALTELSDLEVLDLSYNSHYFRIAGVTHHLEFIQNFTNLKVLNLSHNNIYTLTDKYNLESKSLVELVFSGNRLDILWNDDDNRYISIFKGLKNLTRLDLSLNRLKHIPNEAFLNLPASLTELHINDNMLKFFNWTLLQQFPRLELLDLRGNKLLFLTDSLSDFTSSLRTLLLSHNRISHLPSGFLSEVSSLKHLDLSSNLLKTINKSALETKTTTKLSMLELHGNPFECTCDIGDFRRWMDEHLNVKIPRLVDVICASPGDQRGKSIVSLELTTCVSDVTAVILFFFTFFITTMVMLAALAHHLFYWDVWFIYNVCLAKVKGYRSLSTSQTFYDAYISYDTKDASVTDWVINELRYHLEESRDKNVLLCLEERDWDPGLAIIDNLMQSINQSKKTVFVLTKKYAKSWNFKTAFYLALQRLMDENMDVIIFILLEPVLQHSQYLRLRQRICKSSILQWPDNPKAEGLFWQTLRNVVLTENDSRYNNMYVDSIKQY
# Procedure, shortened: (§1)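 Percent inhibition reflects SEAP reduction after 22 h at 37° C, relative to agonist-plus-DMSO and known-inhibitor controls. Compounds (0.05 nM to 50 μM) were added 30 min before agonist: TLR9 cells received ODN2006 5 nM, TLR8 cells R848 15.9 μM, TLR7 cells gardiquimod 7.5 μM; human receptor-expressing HEK-Blue reporter lines.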
# [2] = target: T2, human TLR7 (Homo sapiens, UniProt Q9NYK1); assay: TLR7 inhibition reporter assay (HEK-Blue SEAP); conditions: HEK-Blue cells overexpressing human TLR7, stimulated with gardiquimod 7.5 μM, 22 hour incubation
# T2 construct: host or cells: HEK-Blue cells
# T2 sequence (Q9NYK1 27-1049): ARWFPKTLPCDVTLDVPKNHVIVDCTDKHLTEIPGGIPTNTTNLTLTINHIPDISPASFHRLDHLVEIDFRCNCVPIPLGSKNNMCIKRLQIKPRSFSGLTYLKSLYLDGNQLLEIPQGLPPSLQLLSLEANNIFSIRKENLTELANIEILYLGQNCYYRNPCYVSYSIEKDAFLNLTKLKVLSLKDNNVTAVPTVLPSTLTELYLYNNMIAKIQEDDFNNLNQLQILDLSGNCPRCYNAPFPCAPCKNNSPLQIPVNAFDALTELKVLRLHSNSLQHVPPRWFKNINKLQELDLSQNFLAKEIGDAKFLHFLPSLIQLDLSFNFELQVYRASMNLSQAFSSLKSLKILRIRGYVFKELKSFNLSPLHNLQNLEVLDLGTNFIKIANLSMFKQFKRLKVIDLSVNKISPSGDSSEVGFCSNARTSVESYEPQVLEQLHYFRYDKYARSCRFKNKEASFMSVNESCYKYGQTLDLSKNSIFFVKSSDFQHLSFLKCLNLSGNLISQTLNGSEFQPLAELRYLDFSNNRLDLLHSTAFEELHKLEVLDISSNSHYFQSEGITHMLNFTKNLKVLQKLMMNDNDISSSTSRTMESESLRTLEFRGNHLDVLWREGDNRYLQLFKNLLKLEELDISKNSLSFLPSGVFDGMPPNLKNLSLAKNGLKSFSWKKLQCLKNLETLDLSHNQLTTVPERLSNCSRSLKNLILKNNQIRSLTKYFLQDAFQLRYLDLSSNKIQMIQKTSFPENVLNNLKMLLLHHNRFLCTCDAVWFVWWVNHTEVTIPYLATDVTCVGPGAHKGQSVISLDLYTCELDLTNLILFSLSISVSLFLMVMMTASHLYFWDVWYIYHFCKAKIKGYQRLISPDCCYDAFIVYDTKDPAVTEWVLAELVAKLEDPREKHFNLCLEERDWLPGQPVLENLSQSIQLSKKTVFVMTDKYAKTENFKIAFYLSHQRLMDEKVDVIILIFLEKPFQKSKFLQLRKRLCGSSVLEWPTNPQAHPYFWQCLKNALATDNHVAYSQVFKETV
# Procedure, shortened: as §1
# [3] = target: T3, human TLR9 (Homo sapiens, UniProt Q9NR96); assay: TLR9 inhibition reporter assay (HEK-Blue SEAP); conditions: HEK-Blue cells overexpressing human TLR9, stimulated with ODN2006 5 nM, 22 hour incubation
# T3 construct: host or cells: HEK-Blue cells
# T3 sequence (Q9NR96 26-1032): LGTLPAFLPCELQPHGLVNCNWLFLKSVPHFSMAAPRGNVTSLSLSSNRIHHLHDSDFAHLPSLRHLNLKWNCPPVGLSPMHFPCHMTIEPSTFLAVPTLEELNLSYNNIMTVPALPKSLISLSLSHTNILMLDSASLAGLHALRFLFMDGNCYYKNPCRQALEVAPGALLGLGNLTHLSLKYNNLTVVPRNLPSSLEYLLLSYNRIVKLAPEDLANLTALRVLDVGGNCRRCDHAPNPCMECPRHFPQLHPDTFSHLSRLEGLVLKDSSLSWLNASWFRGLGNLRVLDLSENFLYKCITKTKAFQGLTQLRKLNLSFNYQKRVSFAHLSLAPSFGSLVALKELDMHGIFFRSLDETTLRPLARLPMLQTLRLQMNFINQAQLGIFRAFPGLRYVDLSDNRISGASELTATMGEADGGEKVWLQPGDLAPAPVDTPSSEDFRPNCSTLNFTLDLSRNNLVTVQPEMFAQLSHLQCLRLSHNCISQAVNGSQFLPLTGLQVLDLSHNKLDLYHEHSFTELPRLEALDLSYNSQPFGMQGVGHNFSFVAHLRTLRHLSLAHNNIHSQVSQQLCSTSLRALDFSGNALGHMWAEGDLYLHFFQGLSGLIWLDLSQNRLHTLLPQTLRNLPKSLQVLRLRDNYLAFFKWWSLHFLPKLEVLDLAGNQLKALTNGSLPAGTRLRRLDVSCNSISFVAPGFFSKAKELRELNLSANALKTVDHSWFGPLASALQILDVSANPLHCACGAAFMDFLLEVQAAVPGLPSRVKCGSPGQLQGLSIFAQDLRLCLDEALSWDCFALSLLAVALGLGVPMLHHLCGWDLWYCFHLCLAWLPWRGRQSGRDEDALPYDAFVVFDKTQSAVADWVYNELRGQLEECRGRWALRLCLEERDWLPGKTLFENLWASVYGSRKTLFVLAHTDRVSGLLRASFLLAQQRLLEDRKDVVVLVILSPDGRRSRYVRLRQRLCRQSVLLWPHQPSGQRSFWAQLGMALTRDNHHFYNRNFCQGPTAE
# Procedure, shortened: as §1
Structure (SMILES),IC50 [1] [nM],IC50 [2] [nM],IC50 [3] [nM]
"COC1CN(C2CCC(c3n[nH]c4cc(-c5cc(C)c6ncnn6c5)c(C(C)C)cc34)CC2)C1 (stereo not drawn) [Example 145, 6-(5-isopropyl-3-(4-(3-methoxyazetidin-1-yl)cyclohexyl)-1H-indazol-6-yl)-8-methyl-[1,2,4]triazolo[1,5-a]pyridine]",0.8,1.5,8690
"Cc1cc(-c2cc3[nH]nc(C4CCC(N5CC(CO)(CO)C5)CC4)c3cc2C(C)C)cn2ncnc12 (stereo not drawn) [Example 146, (1-(4-(5-isopropyl-6-(8-methyl-[1,2,4]triazolo[1,5-a]pyridin-6-yl)-1H-indazol-3-yl)cyclohexyl)azetidine-3,3-diyl)dimethanol]",2.6,4.7,≥ 50000
"Cc1cc(-c2cc3[nH]nc(C4CCC(N5CC(F)C5)CC4)c3cc2C(C)C)cn2ncnc12 (stereo not drawn) [Example 151, 6-(3-(4-(3-fluoroazetidin-1-yl)cyclohexyl)-5-isopropyl-1H-indazol-6-yl)-8-methyl-[1,2,4]triazolo[1,5-a]pyridine]",0.6,1.4,8360
"Cc1cc(-c2cc3[nH]nc(C4CCC(N5CC(F)C5)CC4)c3cc2C(C)C)cn2ncnc12 (stereo not drawn) [Example 152, 6-(3-(4-(3-fluoroazetidin-1-yl)cyclohexyl)-5-isopropyl-1H-indazol-6-yl)-8-methyl-[1,2,4]triazolo[1,5-a]pyridine]",0.3,1.3,13000
"Cc1cc(-c2cc3[nH]nc(C4CCC(N5CC(C)(O)C5)CC4)c3cc2C(C)C)cn2ncnc12 (stereo not drawn) [Example 153, 1-(4-(5-isopropyl-6-(8-methyl-[1,2,4]triazolo[1,5-a]pyridin-6-yl)-1H-indazol-3-yl)cyclohexyl)-3-methylazetidin-3-01]",0.6,1.1,7450
"Cc1cc(-c2cc3[nH]nc(C4CCC(N5CC(C)(O)C5)CC4)c3cc2C(C)C)cn2ncnc12 (stereo not drawn) [Example 154, 1-(4-(5-isopropyl-6-(8-methyl-[1,2,4]triazolo[1,5-a]pyridin-6-yl)-1H-indazol-3-yl)cyclohexyl)-3-methylazetidin-3-01]",0.2,0.5,15900
"Cc1cc(-c2cc3[nH]nc(C4CCC(N5CC6(CCO6)C5)CC4)c3cc2C(C)C)cn2ncnc12 (stereo not drawn) [Example 155, 6-(4-(5-isopropyl-6-(8-methyl-[1,2,4]triazolo[1,5-a]pyridin-6-yl)-1H-indazol-3-yl)cyclohexyl)-1-oxa-6-azaspiro[3.3]heptane]",0.2,1.8,7560
"Cc1cc(-c2cc3[nH]nc(C4CCC(N5CC6(CCO6)C5)CC4)c3cc2C(C)C)cn2ncnc12 (stereo not drawn) [Example 156, 6-(4-(5-isopropyl-6-(8-methyl-[1,2,4]triazolo[1,5-a]pyridin-6-yl)-1H-indazol-3-yl)cyclohexyl)-1-oxa-6-azaspiro[3.3]heptane]",0.1,0.8,6110
"Cc1cc(-c2cc3[nH]nc(C4CCC(N5CC6(CCOC6)C5)CC4)c3cc2C(C)C)cn2ncnc12 (stereo not drawn) [Example 157, 2-(4-(5-isopropyl-6-(8-methyl-[1,2,4]triazolo[1,5-a]pyridin-6-yl)-1H-indazol-3-yl)cyclohexyl)-6-oxa-2-azaspiro[3.4]octane]",0.4,0.5,6730
"Cc1cc(-c2cc3[nH]nc(C4CCC(N5CC6(CCOC6)C5)CC4)c3cc2C(C)C)cn2ncnc12 (stereo not drawn) [Example 158, 2-(4-(5-isopropyl-6-(8-methyl-[1,2,4]triazolo[1,5-a]pyridin-6-yl)-1H-indazol-3-yl)cyclohexyl)-6-oxa-2-azaspiro[3.4]octane]",0.2,0.5,9850
"Cc1cc(-c2cc3[nH]nc(C4CCC(N5CCC(F)C5)CC4)c3cc2C(C)C)cn2ncnc12 (stereo not drawn) [Example 163, 6-(3-(4-(3-fluoropyrrolidin-1-yl)cyclohexyl)-5-isopropyl-1H-indazol-6-yl)-8-methyl-[1,2,4] triazolo[1,5-a]pyridine]",0.1,0.9,6230
"Cc1cc(-c2cc3[nH]nc(C4CCC(N5CCC(F)C5)CC4)c3cc2C(C)C)cn2ncnc12 (stereo not drawn) [Example 164, 6-(3-(4-(3-fluoropyrrolidin-1-yl)cyclohexyl)-5-isopropyl-1H-indazol-6-yl)-8-methyl-[1,2,4] triazolo[1,5-a]pyridine]",0.1,1.5,6450
"Cc1cc2c(OC3CCNCC3)n[nH]c2cc1-c1cc(C)c2ncnn2c1 [Example 167, 8-methyl-6-(5-methyl-3-(piperidin-4-yloxy)-1H-indazol-6-yl)-[1,2,4]triazolo[1,5-a]pyridine]",0.2,5.4,631
